Measured values: patent US11352352B2, “Aminopyrimidine compound, preparation method therefor and use thereof” (BEIJING ADAMADLE BIOTECHNOLOGY LIMITED LIABILITY COMPANY, priority 2017, dated 2022)

Columns and labels:
Assay in all cases: Cell proliferation inhibition experiment, CellTiter-Glo (CTG) method
Assay type in all cases: cell-based
PC-9 = details: Homo sapiens, PC-9, 72 h, PC-9 cells, 3 days
Summary of the method: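 Cells in log-phase growth (viability above 90% by trypan blue) were seeded at 90 μL per well in black-walled, clear-bottom 96-well plates and incubated overnight at 37° C., 5% CO2. A T0 plate was read the next day. Test compounds were added at nine concentrations in triplicate with a solvent control. Viability was measured by CellTiter-Glo luminescence on EnVision, and IC50 came from non-linear S-curve fitting in GraphPad Prism 5.0.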

NCI-H1975 = details: for IC50: Homo sapiens, NCI-H1975, 72 h, NCI-H1975 cells, CTG, 3 days; for A-431/NCI-H1975 Selectivity: ratio of A-431 IC50 to NCI-H1975 IC50
Summary of the method: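 NCI-H1975 cells with viability above 90% by trypan blue were seeded at 90 μL per well in black 96-well plates and incubated overnight at 37° C., 5% CO2. Compounds were added at nine concentrations in triplicate, and viability was measured with CellTiter-Glo luminescence on EnVision. IC50 came from non-linear S-curve fitting in GraphPad Prism 5.0.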

A-431 = details: Homo sapiens, A-431, 72 h, A-431 cells, 3 days
Summary of the method: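 Log-phase cells (viability >90%) were plated and incubated overnight, then dosed in triplicate across nine 3-fold concentrations. The top dose was 30 μM on A-431 and 1.111 μM on NCI-H1975 and PC-9. Survival after 3 days was measured by CellTiter-Glo and IC50 derived by non-linear regression.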

SMILES | IC50 (PC-9) | IC50 (NCI-H1975) | A-431/NCI-H1975 Selectivity (NCI-H1975) | IC50 (A-431)
C=CC(=O)Nc1cc(Nc2cc(-c3ccc4c(cnn4C)c3)ncn2)c(OC)cc1N(C)C1CCN(CCOC)CC1 [compound 224] | 0.0271 µM | 0.0158 µM | 69.3 | 1.09 µM
C=CC(=O)Nc1cc(Nc2cc(-c3ccc4cnn(C)c4c3)ncn2)c(OC)cc1N(C)C1CCN(CCOC)CC1 [compound 225] | 0.0672 µM | 0.0751 µM | 32.9 | 2.47 µM
C=CC(=O)Nc1cc(Nc2cc(-c3ccc4c(cnn4C)c3)ncn2)c(OC)cc1N(C)C1CCN(CC)CC1 [compound 226] | 0.0546 µM | 0.0682 µM | 35.0 | 2.39 µM
C=CC(=O)Nc1cc(Nc2cc(-c3ccc4cnn(C)c4c3)ncn2)c(OC)cc1N(C)C1CCN(CC)CC1 [compound 227] | 0.0907 µM | 0.0796 µM | 30.6 | 2.44 µM
C=CC(=O)Nc1cc(Nc2nccc(-c3ccc4c(cnn4C)c3)n2)c(OC)cc1N1CCN(C)CC1 [compound 228] | 0.0357 µM | 0.0657 µM | 24.1 | 1.58 µM
C=CC(=O)Nc1cc(Nc2nccc(-c3ccc4c(cnn4C)c3)n2)c(OC)cc1N1C[C@@H](C)N(C)[C@@H](C)C1 [compound 229] | 0.0681 µM | 0.0938 µM | 17.3 | 1.62 µM
C=CC(=O)Nc1cc(Nc2nccc(-c3ccc4c(cnn4C)c3)n2)c(OC)cc1N1CCC(N2CCN(C)CC2)CC1 [compound 230] | 0.0594 µM | 0.0682 µM | 29.1 | 1.98 µM
C=CC(=O)Nc1cc(Nc2nccc(-c3ccc4c(cnn4C)c3)n2)c(OC)cc1N(C)C1CCN(C)CC1 [compound 231] | 0.0765 µM | 0.0968 µM | 17.8 | 1.73 µM
C=CC(=O)Nc1cc(Nc2nccc(-c3ccc4c(cnn4C)c3)n2)c(OC)cc1N1CCN(CCOC)CC1 [compound 232] | 0.0827 µM | 0.0902 µM | 28.4 | 2.56 µM
C=CC(=O)Nc1cc(Nc2nccc(-c3ccc4c(cnn4C)c3)n2)c(OC)cc1N1CCC(N2C[C@@H](C)N(C)[C@@H](C)C2)CC1 [compound 233] | 0.0549 µM | 0.0714 µM | 34.1 | 2.44 µM
C=CC(=O)Nc1cc(Nc2nccc(-c3ccc4c(cnn4C)c3)n2)c(OC)cc1N1CCC(N2CCN(C(C)C)CC2)CC1 [compound 234] | 0.0327 µM | 0.0801 µM | 30.7 | 2.46 µM
C=CC(=O)Nc1cc(Nc2nccc(-c3ccc4c(cnn4C)c3)n2)c(OC)cc1N1CCN(C2CCOCC2)CC1 [compound 235] | 0.0249 µM | 0.094 µM | 25.5 | 2.4 µM
C=CC(=O)Nc1cc(Nc2nccc(-c3ccc4c(cnn4C)c3)n2)c(OC)cc1N1CCC(N2C[C@@H](C)O[C@@H](C)C2)CC1 [compound 236] | 0.0387 µM | 0.06 µM | 34.7 | 2.08 µM
C=CC(=O)Nc1cc(Nc2nccc(-c3ccc4c(cnn4C)c3)n2)c(OC)cc1OCCN(C)C [compound 237] | 0.0445 µM | 0.0217 µM | 84.1 | 1.82 µM
C=CC(=O)Nc1cc(Nc2nccc(-c3ccc4c(cnn4C(C)C)c3)n2)c(OC)cc1N(C)CCN(C)C [compound 238] | 0.0994 µM | 0.0516 µM | 37.6 | 1.94 µM
C=CC(=O)Nc1cc(Nc2nccc(-c3ccc4c(cnn4C)c3)n2)c(OC)cc1N(C)CCN(CC)CC [compound 239] | 0.0679 µM | 0.033 µM | 47.8 | 1.58 µM

SMILES | IC50 (PC-9) | IC50 (NCI-H1975) | A-431/NCI-H1975 Selectivity (NCI-H1975) | IC50 (A-431)
C=CC(=O)Nc1cc(Nc2nccc(-c3ccc4c(cnn4CC)c3)n2)c(OC)cc1N(C)CCN(CC)CC [compound 240] | 0.11 µM | 0.062 µM | 48.0 | 2.98 µM
C=CC(=O)Nc1cc(Nc2nccc(-c3ccc4c(cnn4C)c3)n2)c(OC)cc1N(C)CCN(C)CC [compound 241] | 0.211 µM | 0.0229 µM | 45.3 | 1.04 µM
C=CC(=O)Nc1cc(Nc2nccc(-c3ccc4c(cnn4C)c3)n2)c(OCC)cc1N(C)CCN(C)C [compound 242] | 0.0281 µM | 0.0267 µM | 45.0 | 1.2 µM
C=CC(=O)Nc1cc(Nc2nccc(-c3ccc4c(cnn4CC)c3)n2)c(OCC)cc1N(C)CCN(C)C [compound 243] | 0.0654 µM | 0.0429 µM | 50.8 | 2.18 µM
C=CC(=O)Nc1cc(Nc2nccc(-c3ccc4c(cnn4C)c3)n2)c(OC)cc1N(C)CCN1CCN(C)CC1 [compound 244] | 0.0847 µM | 0.0597 µM | 40.2 | 2.4 µM
C=CC(=O)Nc1cc(Nc2nccc(-c3ccc4c(cnn4C)c3)n2)c(OC(F)F)cc1N(C)CCN1CCN(C)CC1 [compound 245] | 0.0707 µM | 0.0616 µM | 38.6 | 2.38 µM
C=CC(=O)Nc1cc(Nc2nccc(-c3ccc4c(cnn4C)c3)n2)c(OC)cc1N(C)CCNC(C)(C)C [compound 246] | 0.0672 µM | 0.0897 µM | 25.6 | 2.3 µM
C=CC(=O)Nc1cc(Nc2nccc(-c3ccc4c(cnn4C)c3)n2)c(OC(F)F)cc1N(C)CCNC(C)(C)C [compound 247] | 0.0374 µM | 0.0371 µM | 80.5 | 2.99 µM
C=CC(=O)Nc1cc(Nc2nccc(-c3ccc4c(cnn4C)c3)n2)c(OC)cc1NCCN(C)C [compound 248] | 0.0277 µM | 0.0133 µM | 214.3 | 2.85 µM
C=CC(=O)Nc1cc(Nc2nccc(-c3ccc4c(cnn4C)c3)n2)c(OC(F)F)cc1NCCN(C)C [compound 249] | 0.061 µM | 0.0086 µM | 109.7 | 0.943 µM
C=CC(=O)Nc1cc(Nc2nccc(-c3ccc4c(cnn4C)c3)n2)c(OC)cc1N(C)CCN1CCN(C2CC2)CC1 [compound 252] | 0.0255 µM | 0.188 µM | 16.0 | 2.99 µM
C=CC(=O)Nc1cc(Nc2nccc(-c3ccc4c(cnn4C)c3)n2)c(OC)cc1N1CCC(N2CCN(C(C)=O)CC2)CC1 [compound 253] | 0.0321 µM | 0.0622 µM | 40.0 | 2.49 µM
C=CC(=O)Nc1cc(Nc2nccc(-c3ccc4c(cnn4C)c3)n2)c(OC)cc1N(C)CCN1CCN(C(C)=O)CC1 [compound 254] | 0.0309 µM | 0.132 µM | 17.2 | 2.27 µM
C=CC(=O)Nc1cc(Nc2nccc(-c3ccc4nc(C)sc4c3)n2)c(OC)cc1N(C)CCN(C)C [compound 255] | 0.03 µM | 0.0464 µM | 43.4 | 2.01 µM
C=CC(=O)Nc1cc(Nc2cc(-c3ccc4c(cnn4C)c3)ncn2)c(OC(F)F)cc1N(C)CCN(C)C(C)C [compound 256] | 0.0192 µM | 0.0096 µM | 103.3 | 0.992 µM
